SMILES strings stand for the structures.

This test has as its system Plasmodium falciparum. Description: GSK_TCMDC: Inhibition of Plasmodium falciparum 3D7 in whole erythrocytes, using parasite LDH activity as an index of growth. Format: functional, organism-based. As to conditions: Plasmodium falciparum, 3D7.
Take `O=C(N/N=C/c1nc2ccccc2[nH]1)c1cccc([N+](=O)[O-])c1`: the XC50 was found to be 628 nM.
`CN1CCC(NCc2cccc(-c3ccc(S(=O)(=O)NCc4ccccc4)c(F)c3)c2)CC1` yielded an XC50 of 325 nM.
`C=CCc1cccc(CN2CCC(c3cc(O)nc(-c4ccccn4)n3)CC2)c1O` had an XC50 of 1100 nM.
Regarding `Cc1cccc2nc(-c3cccc(-c4cccc(NC(=O)c5cnccc5C(F)(F)F)c4)c3)[nH]c12`, the XC50 turned out to be 659 nM.
As to `Cc1cccc2nc(-c3ccc(-c4ccc(CN5CCN(CCO)CC5)cc4)s3)[nH]c12`, the XC50 came out at 712 nM.
Molecule `COc1ccc(NC(=O)c2ccc(NC(=O)c3ccc(Cl)cc3)cc2)cc1N1CCN(C)CC1` showed an XC50 of 849 nM.
Consider `CC(NC(=O)c1ccc(O)c(-c2ccc(Cl)c(Cl)c2)c1)C(=O)NCCN1CCCC1` (stereo not given), for which the XC50 came out at 759 nM.
For `O=C(Nc1ccc(-c2nc3ccccc3[nH]2)cc1)C1CCCN(C2CCC2)C1` (stereo not given), the XC50 amounted to 1350 nM.
The molecule `COc1ccc(CNCCc2cccs2)cc1-c1ccc(S(=O)(=O)NCCN2CCCC2)cc1` returned an XC50 of 655 nM.
`C=C(F)c1sc(CNCCCNc2nc3ccccc3[nH]2)c(C)c1Br` returned an XC50 of 367 nM.
Under `CC(C)(C)Oc1ccc(NC(=O)c2ccccc2O)cc1` stands 1010 nM; under `CN1C(=C2SC(=Nc3ccc4ncccc4c3)N(Cc3ccccc3)C2=O)Sc2ccc(Cl)cc21`, 1060 nM.
On to `N#Cc1ccc2c(c1)CCN(CCC1CCC(NC(=O)/C=C/c3ccc4ccccc4c3)CC1)CC2` (stereo not given), for which the XC50 was 724 nM.
Under `O=S(=O)(NCCN1CCCC1)c1ccc(-c2ccc(CNCc3ccccc3)cc2)cc1` stands 775 nM; under `CC1(C)CCCN(c2ncc(-c3cccc(CNCc4ccccc4O)c3)cn2)C1`, 886 nM; under `Cc1[nH]c2ccc(O)cc2c1C1CCN(CC2CCC(NC(=O)/C=C/c3c(Cl)cccc3Cl)CC2)CC1` (stereo not given), 817 nM.
The result for `O=C(Nc1ccc(C(=O)N(Cc2ccc3c(c2)OCO3)C2CCCC2)cc1)c1cccs1` reads 650 nM.
The molecule `CCCc1cc(OC)c(CC2c3cc(O)c(Cl)cc3CCN2C)cc1OC` (stereo not given) came in with an XC50 of 575 nM.
For `CCc1cn2c3c(cc(C(=O)N[C@@H](Cc4ccccc4)[C@H](O)CNCc4ccc(C)cc4)cc13)N(C)S(=O)(=O)CC2`, the XC50 amounted to 547 nM.
Take `COc1cccc(-c2cc(C(=O)Nc3cc(Oc4ccc(O)cc4)cc([N+](=O)[O-])c3)on2)c1`: the XC50 is 1050 nM.
For the molecule `COc1ccc(NC(=O)[C@H](CC(C)C)Nc2cc(C)nc(NCCOc3ccccc3)n2)cc1`, the XC50 is 800 nM.
For the molecule `CC(C)(C)c1ccc(C(=O)NC2CCC(CCN3CCc4ccc(S(C)(=O)=O)cc4CC3)CC2)cc1C(F)(F)F` (stereo not given), the XC50 is 1220 nM.
As for `CCCCCCNCCOc1ccc(-c2nc(-c3ccccc3)c(-c3ccccc3)[nH]2)cc1`, the XC50 is 669 nM.
Under `Cc1cc(N[C@@H](CC(C)C)C(=O)NCCOc2ccccc2)nc(NCCc2ccccc2)n1` stands 1510 nM; under `CC(C(=O)OCCOCn1cnc2c(=O)[nH]c(N)nc21)N(C)C(=O)OC(C)(C)C` (stereo not given), 1000 nM.
In turn, `Cc1c(C)n(C2CCCC2)c2ncnc(OC3CCN(CC(=O)NC4CC4)CC3)c12` gave an XC50 of 790 nM.
Consider `O=C(Nc1ccc(C(F)(F)F)cc1)c1cccc(S(=O)(=O)NC2CCN(CC3CCCCC3)C2)c1` (stereo not given), for which the XC50 is 690 nM.
Under `CCCc1cn2c3c(cc(C(=O)N[C@@H](Cc4ccccc4)[C@H](O)CNC4CCOCC4)cc13)N(CC)S(=O)(=O)CC2` stands 98.8 nM.
`COc1ccc(C2=C(Nc3ccc4oc5ccccc5c4c3)c3ccccc3C2=O)cc1` had an XC50 of 830 nM.
Under `O=C(COc1ccc(Cl)c(Cl)c1)NCCCCCN1CCCN(C(=O)Nc2ccc(Cl)c(Cl)c2)CC1` stands 1730 nM; under `COc1cc(F)c2nccc([C@@H](O)CN3CCC(NCc4ccc5c(n4)NC(=O)CS5)C(F)C3)c2c1` (stereo not given in full), 1170 nM.
`COc1cccc(CCNC(C)Cc2ccc(OCCCCOc3ccccc3)cc2)c1` (stereo not given): the XC50 was 741 nM.
Turning to `COc1ccc2[nH]cc(C3CCN(CCC4CCN(C(=O)/C=C/c5ccc(Cl)c(Cl)c5)CC4)CC3)c2c1`, the XC50 is 862 nM.
Under `Fc1ccc(Nc2ccnc3cc(-c4ccc(CNCCN5CCOCC5)o4)ccc23)c(Cl)c1` stands 186 nM; under `CN(C)CCOc1ccc(-c2cc(-c3ccncc3)c(-c3ccc(Cl)c(O)c3)o2)cc1`, 214 nM; under `Cc1cccc2nc(-c3ccc(-c4ccc(CN5CCCC5CN)cc4)cc3)[nH]c12` (stereo not given), 815 nM.
Under `FC(F)(F)COc1c(CNCCCCCCNCc2ccc3ccccc3c2OCC(F)(F)F)ccc2ccccc12` stands 761 nM; under `Cc1cccc2nc(-c3cccc(-c4cccc(NC(=O)Nc5ccsc5)c4)c3)[nH]c12`, 170 nM; under `O=C(N[C@@H](Cc1ccccc1)[C@H](O)CNCCC(F)(F)F)c1cccc(CCC2CC2)c1`, 1020 nM.
The result for `O=C(/C=C/c1ccc(Cl)c(Cl)c1)N1CCC(CCN2CCC(c3c[nH]c4ccccc34)CC2)CC1` reads 602 nM; that for `CC(=O)Nc1ccc(C(=O)Nc2ccc(-c3cccc(-c4nc5cccc(C)c5[nH]4)c3)cc2)cn1`, 265 nM.
As for `Cc1cc(N[C@@H](Cc2ccccc2)C(=O)NCc2cccs2)nc(NCCc2ccc(F)cc2)n1`, the XC50 stood at 854 nM.
Under `Cc1cc(OCC2CCN(c3ccc(C(=O)NC4CC4)cn3)CC2)ccc1F` stands 868 nM; under `CS(=O)(=O)Nc1cccc(-c2cnc3[nH]cc(-c4ccc(CN)cc4)c3c2)c1`, 986 nM.
Under `Cc1cccc2nc(-c3ccc(-c4cccc(CNCCN5CCNCC5)c4)cc3)[nH]c12` stands 1230 nM.
Molecule `COc1cc(CN2CCC(N3CCc4cc(NC(=O)c5cc(C)on5)ccc43)C2)ccc1F` (stereo not given) had an XC50 of 607 nM.
The result for `CCS(=O)(=O)c1ccc(-c2cnc3[nH]cc(-c4ccc(N)cc4)c3c2)cc1` reads 851 nM; that for `COc1ccc(-c2nc(-c3ccc([N+](=O)[O-])cc3)no2)cc1OC`, 409 nM.
The result for `CC[C@H](C)CNC(=O)c1ccnc(-c2ccc(CNC3Cc4ccccc4C3)cc2)c1` reads 569 nM; that for `CCCc1ccc(S(=O)(=O)NC2CCN(c3ccnc(Nc4ccc(OC)cc4)n3)C2)cc1` (stereo not given), 1190 nM.
Molecule `COc1ccc(C)c(Nc2ccnc(Nc3ccc(-c4cnc[nH]4)cc3)n2)c1` had an XC50 of 1370 nM.
Turning to `COc1cc(Cc2cnc(N)nc2N)cc(OC)c1OCCNC(=O)[C@@H](N)CCC(=O)O`, the XC50 was found to be 843 nM.
On to `COc1c(C2CCN(CCCCNC(=O)c3ccc(-c4ccc(C#N)cc4)cc3)CC2)cc(Cl)c2c1CCCC2`, for which the XC50 was found to be 776 nM.
As for `COc1ccc2nccc([C@@H](O)CN3CCC(NC(=O)c4ccc(C5(C(F)(F)F)N=N5)cc4)CC3)c2c1`, the XC50 was 931 nM.
Turning to `Cc1cccc2nc(-c3cccc(-c4ccc(CNCCc5ccncc5)cc4)c3)[nH]c12`, the XC50 was 119 nM.
The result for `CCOc1ccc(N2CCN(CCCCNC(=O)c3ccc(NC(=O)c4ccc(Cl)cc4)cc3)CC2)c(OCC)c1` reads 567 nM; that for `COc1ccc(CN2CCN(CCOC(c3ccc(F)cc3)c3ccc(F)cc3)CC2)c(O)c1`, 733 nM; that for `COc1ccc2c(=NN=Cc3ccccc3Cl)cc(C)[nH]c2c1`, 373 nM.
`O=C(CCc1cccc(O)c1)NCC(NCCCNc1cc(=O)c2ccccc2[nH]1)c1cc(Br)cc(Br)c1` (stereo not given) returned an XC50 of 1170 nM.
Under `NS(=O)(=O)c1cccc(N/C=C2\C(=O)Nc3ccc(S(=O)(=O)Cc4c(Cl)cccc4Cl)cc32)c1` stands 720 nM.
In turn, `COc1ccc2c(NN=Cc3ccccc3Cl)ccnc2c1` showed an XC50 of 622 nM.
As to `CCNC(=O)Nc1cccc(-c2cccc(-c3nc4cc(C(F)(F)F)ccc4[nH]3)c2)c1`, the XC50 came to 678 nM.
`CC(=O)N(C)c1cccc(C(=O)Nc2cccc(-c3cccc(-c4nc5cccc(C)c5[nH]4)c3)c2)c1` showed an XC50 of 617 nM.
The molecule `CCN(c1ccc(F)cc1)S(=O)(=O)c1cc(Br)cc2c1N(C(=O)C1CC1)CC2` returned an XC50 of 943 nM.
Under `O=c1n(CC2CCCCC2)c2cc(Cl)cc(OCCNc3ccncc3)c2n1CC1CCCCC1` stands 593 nM.
Take `O=c1cc(NCCCNC2CCOc3c(Cl)cccc32)[nH]c2ccccc12` (stereo not given): the XC50 was 832 nM.
`CCN(CC)Cc1cc(NC(=O)c2ccccc2O)ccc1Oc1ccc(Cl)cc1` came in with an XC50 of 827 nM.
The result for `CCN(C(=O)CSc1cc(C)c2cc(C)cc(C)c2n1)C1CCS(=O)(=O)C1` (stereo not given) reads 667 nM; that for `COc1cc2nc(NCCCO)nc(Nc3ccc(Oc4ccccc4)cc3)c2cc1OC`, 145 nM; that for `CCOC(=O)Nc1cc(-c2csc(N=C(N)N)n2)cc([N+](=O)[O-])c1`, 816 nM.
Under `CC1(C)NC(N)=NC(=N)N1OCc1ccc(-c2ccccc2)cc1` stands 3.2 nM; under `COc1ccc2[nH]ccc(=NN=Cc3ccc(F)cc3)c2c1`, 720 nM; under `O=C(Nc1cccc(-c2nn3ccccc3c2-c2ccnc(Nc3ccccc3)n2)c1)c1cc(F)ccc1F`, 953 nM.
Molecule `CNC(=O)C(NC(=O)c1ccccc1C(=O)OC)c1ccccc1` (stereo not given) displayed an XC50 of 556 nM.
The result for `CCC(C)(C)C1CCc2[nH]c3ccccc3c(=O)c2C1` (stereo not given) reads 384 nM.
The result for `FC(F)(F)c1ccc2nccc(NCc3ccccc3)c2c1` reads 1150 nM; that for `Cc1nnc2c(NC(=O)NC3CCCC3)cc3cc(-c4ccc(CN5CCN(C)CC5)cc4)ccc3n12`, 1020 nM; that for `CSc1ccc(CN2CCC(CNC(=O)c3cc(-c4ccccc4F)cs3)C2)cc1` (stereo not given), 1140 nM.
`CCOc1cc(C(=O)Nc2ccc(-c3nc4ccccc4[nH]3)cc2)cc(OCC)c1OCC` displayed an XC50 of 234 nM.
The result for `Cc1ccc(NC(=O)Nc2ccc(Cn3ncc(N4CCCNCC4)c(Cl)c3=O)cc2)cc1` reads 918 nM; that for `CC(CO)(CO)NCc1cc2ccc3ccsc3c2c2ccccc12`, 229 nM; that for `CCOC(=O)c1c(C)n(-c2ccccc2)c2ccc(OC(=O)c3ccc(S(=O)(=O)N(CC)CC)cc3)cc12`, 748 nM.
Molecule `CCCCCCCC1CC(CC(=O)Nc2ccnc3ccc(OC)cc23)CN1` (stereo not given) gave an XC50 of 511 nM.
As for `CC(C)CC1(C(=O)OC(C)(C)C)CC(C(=O)OC(C)(C)C)C(c2cccs2)N1C(=O)c1ccc(C(C)(C)C)cc1` (stereo not given), the XC50 is 137 nM.
The result for `O=C(N[C@@H](Cc1ccccc1)C(=O)NC1CCCCC1)c1ccc(O)c(-c2cccc(C(F)(F)F)c2)c1` reads 809 nM.
